# Test results from patent publication US20130210024A1, “COMBINATION TREATMENT OF CANCER” (Agency for Science, Technology and Research, priority 2010, published 2013).
# Residues, ends and D or L forms follow the SMILES beside them. *: point of attachment. Cbz = O=C(OCc1ccccc1)*
# Assays:
# [1] = system: U2OS cells; test: FACS cell cycle / apoptosis analysis in U2OS cells, EZH2 RNA interference plus ADR or ETO; assay type: cell-based, human; conditions: control (non-knockdown) U2OS cells treated with the DNA damaging agent alone; FIG. 1A
# Protocol: (§1) The human colorectal cancer HCT116 cells were kindly provided by Dr. Bert Vogelstein (John Hopkins University, MD). Other cell lines used in this study, including human osteosarcoma U2OS and Saos-2 and breast cancer MCF7 were obtained from the American Type Culture Collection (ATCC) and maintained in Dulbecco's modified Eagle medium (DMEM) supplemented with 10% fetal bovine serum (FBS) and antibiotics in a 37° C. humidified incubator containing 5% CO2. Human breast epithelial MCF10A cells were obtained from ATCC and maintained as recommended (Kadota et al 2010). Adramycin (ADR), Etopside (ETO), Nocodazole (Noco), proteasomal inhibitors MG132 and MG115 were purchased from Sigma-Aldrich.
# Specific siRNA oligos targeting EZH2 (as described above) and FBXO32 (FBXO32 siRNA: 5_-GTCACATCCTTTCCTGGAA-3_) mRNAs were used. The non-targeting control was purchased from Dharmacon (Lafayett, Colo.). For EZH2 knockdown, a sequential twice knockdown is performed to secure efficient gene silencing. […]
# Cells were harvested and fixed in 70% ethanol. […] The stained cells were analyzed for DNA content by fluorescence-activated cell sorting (FACS) in a FACS Calibur (Becton Dickinson Instrument, San Jose, Calif.). Cell cycle fractions were quantified using the CellQuest software (Becton Dickinson). […]
# [2] = system: p21 mRNA; test: p21 mRNA level (Taqman quantitative real-time PCR); assay type: cell-based, human; conditions: DZNep with ADR or ETO; data not shown
# Protocol: Total RNA was isolated using Trizol (Invitrogen) and purified with the RNeasy Mini Kit (Qiagen). Reverse transcription was performed using an RNA Amplification kit (Ambion). Quantitative real-time PCR was assessed using the PRISM 7900 Sequence Detection System (Applied Biosystems) with specific probes from Applied Biosystem. Samples were normalized to the levels of GAPDH mRNA.
# [3] = system: non-transformed MCF-10A, IMR90 and RWEP cells; test: ADR or ETO-induced apoptosis in non-transformed cells with DZNep; assay type: cell-based, human; conditions: data not shown
# Protocol: as §1
# (§2) Cells were harvested and fixed in 70% ethanol. Fixed cells were stained with propidium iodide (50 μg/mL) after treatment with RNase (100 μg/mL). The stained cells were analyzed for DNA content by fluorescence-activated cell sorting (FACS) in a FACS Calibur (Becton Dickinson Instrument, San Jose, Calif.). Cell cycle fractions were quantified using the CellQuest software (Becton Dickinson). For synchronization experiment, HCT116 cells expressing FBXO32 or empty vector were treated with Nocodazole (400 ng/ml) for 16 h, mitotically arrested cells were treated with ADR and then subject to FACS for cell cycle analysis.
# [4] = system: EZH2 complex; conditions: cancer cells; previously shown (Tan et al., 2007); cited from earlier work
# [5] = system: U2OS, HCT116, Saos-2 and p53-deficient HCT116 cells; test: FACS cell cycle / apoptosis analysis, DZNep combined with ADR or ETO in cancer cells; assay type: cell-based, human
# Protocol: as §1, §2
# [6] = system: FBXO32, p21, p-Chk1; test: Immunoblot analysis of FBXO32, p21 and Chk1 phosphorylation after DZNep with ADR or ETO; assay type: cell-based, human
# Protocol: as §1
# Protein extracts were prepared by lysis in RIPA buffer containing (50 mM Tris-HCl, pH 7.4, 150 mM NaCl, 1% Nonidet P-40, 0.5% sodium deoxycholate, 0.1% SDS, 1 mM EDTA, 50 mM NaF, 0.1 mM Na3VO4) and protease inhibitor cocktail (Roch). Lysates were resolved by SDS-PAGE, transferred onto a immobilon membrane (Millipore) and probed with indicated antibodies. For co-immunoprecipitation experiments, cells were lysed and incubated with the indicated antidodies and protein G-seperose beads overnight at 4° C. Beads were washed four times with lysis buffer. The bound proteins were dissolved in SDS sample buffer, resolved by SDS-PAGE, and immunoblotted with the indicated antibodies. Where indicated, proteosome inhibitors MG-132 (5 μM) or MG-115 (20 μM) were used to treat cells for 8 h before protein extraction. Antibodies used in this study include: anti-EZH2 (Cell Signaling), anti-p21 (Santa Cruz), anti-FBXO32 (Santa Cruz), anti-p53 (Santa Cruz), anti-MDM2 (Santa Cruz), anti-phospho-Chk1 (Cell signaling), anti-Chk1 (Santa Cruz), anti-phospho-Chk2 (Cell signaling), anti-Chk2 (Upstate), anti-H3 (Cell signaling), anti-PARP (Cell Signaling), anti-H3K27me3 (Upstate), anti-actin mouse monoclonal (Sigma).
smiles,measurement,setting,value
COc1cccc2c1C(=O)c1c(O)c3c(c(O)c1C2=O)C[C@@](O)(C(=O)CO)C[C@@H]3O[C@H]1C[C@H](N)[C@H](O)[C@H](C)O1 [Adriamycin],cell cycle arrest / apoptosis in control cells,[1],mainly cell cycle arrested with little apoptosis
"Nc1nccc2c1ncn2[C@@H]1C=C(CO)[C@@H](O)[C@H]1O [DZNep, 3-Deazaneplanocin A]",p21 mRNA as cause of p21 protein downregulation,[2],not due to a decrease in p21 mRNA
same,promotion of ADR or ETO-induced apoptosis in non-transformed cells,[3],did not promote
same,depletion of EZH2 complex,[4],can deplete EZH2 complex
same,"effect of DZNep on DNA damage-induced apoptosis, p21 and p-Chk1 when FBXO32 is knocked down","[5]; HCT116 cells with FBXO32 knockdown, FIGS. 4E, 4F",largely abolished when FBXO32 was knockdown
same,checkpoints activation (FACS),"[5]; combination of DZNep with ADR or ETO, HCT116 or U2OS cells, FIG. 4A",abrogates checkpoints activation
same,"checkpoints (FACS), p53-deficient cells","[5]; combination of DZNep with ADR or ETO, p53-deficient HCT116 or Saos-2 cells, FIG. 4C",abrogates checkpoints
same,effect on ADR or ETO-induced cell cycle arrest / apoptosis,"[5]; pretreatment with DZNep, then ADR or ETO, p53-proficient U2OS and HCT116, p53-deficient Saos-2 and HCT116 cells, FIGS. 4A, 4C",converted ADR or ETO-induced cell cycle arrest to marked apoptosis
same,p21 and/or p-Chk1 induction by ADR or ETO,"[6]; DZNep with ADR or ETO, U2OS, HCT116, Saos-2, p53-deficient HCT116, FIGS. 4B, 4D",largely abolished
same,FBXO32 induction,"[6]; EZH2 depletion by DZNep, U2OS, HCT116, Saos-2, p53-deficient HCT116, FIGS. 4B, 4D",accompanied with FBXO32 induction
same,ADR or ETO-induced p21 accumulation and Chk1 phosphorylation,"[6]; combination of DZNep with ADR or ETO, HCT116 and U2OS cells, FIG. 4B",abolishes
same,"DNA damage induced p21 accumulation and Chk1 phosphorylation, p53-deficient cells","[6]; combination of DZNep with ADR or ETO, p53-deficient HCT116 and Saos-2 cells, FIG. 4D",abolishes
COc1cc([C@@H]2c3cc4c(cc3[C@@H](O[C@@H]3O[C@@H]5CO[C@@H](C)O[C@H]5[C@H](O)[C@H]3O)[C@H]3COC(=O)[C@H]23)OCO4)cc(OC)c1O [Etoposide],cell cycle arrest / apoptosis in control cells,[1],mainly cell cycle arrested with little apoptosis
CC(C)C[C@@H](C=O)NC(=O)[C@H](CC(C)C)NC(=O)[C@H](CC(C)C)NC(=O)OCc1ccccc1 [MG132] (Cbz-Leu-Leu-Leu-aldehyde),"p21 protein downregulation by DZNep with ADR or ETO, effect of proteasome inhibitor","[6]; MG132 added, data not shown",prevented
